Test results from publication PMC10589713 (Proceedings of the National Academy of Sciences of the …, 2023).
Values joined by “and” are separate entries in the source; they are usually repeats but may differ in a detail not shown here. Equal values may be shown once.

Tests used:
rgDENV2 NS5-G605V = type: cell-based, dengue virus
RVFV = assay: microbe, parasite or virus in culture; type: cell-based; conditions: Rift Valley fever virus, MDCK
YFV = assay: microbe, parasite or virus in culture; type: cell-based; conditions: Yellow fever virus, BHK-21, 72 h
SARS-CoV-2 = assay: microbe, parasite or virus in culture; type: cell-based; conditions: Severe acute respiratory syndrome coronavirus 2, VeroE6/TMPRSS2
DENV2 [1] = assay: microbe, parasite or virus in culture; type: cell-based; conditions: Dengue virus, DENV2, BHK-21, 96 h
LPHV = assay: microbe, parasite or virus in culture; type: cell-based; conditions: Leopards Hill virus
CHIKV = assay: microbe, parasite or virus in culture; type: cell-based; conditions: Chikungunya virus, BHK-21
IAV H7N9 = assay: microbe, parasite or virus in culture; type: cell-based; conditions: Influenza A virus, H7N9, MA104
LACV = assay: organism not typed; type: cell-based; conditions: MDBK
[2] = mouse, in vivo
JUNV = assay: microbe, parasite or virus in culture; type: cell-based; conditions: Mammarenavirus juninense, HEK-293T
MERS-CoV = assay: microbe, parasite or virus in culture; type: cell-based; conditions: Middle East respiratory syndrome-related coronavirus, VeroE6/TMPRSS2
ZIKV = assay: microbe, parasite or virus in culture; type: cell-based; conditions: Zika virus, BHK-21, 72 h
IAV H5N1 = assay: microbe, parasite or virus in culture; type: cell-based; conditions: Influenza A virus, H5N1, A549
rgDENV2 Wild type = assay: microbe, parasite or virus in culture; type: cell-based; conditions: Dengue virus, BHK-21, 96 h
LCMV = assay: microbe, parasite or virus in culture; type: cell-based; conditions: Mammarenavirus choriomeningitidis
DENV2 AG-P10 = tested on: DENV2 AG-P10; set-up: species or system AG129 mice; conditions: mouse, in vivo
DENV2 [3] = assay: microbe, parasite or virus in culture; type: cell-based; conditions: Dengue virus, DENV2, Huh-7
SFTSV = assay: microbe, parasite or virus in culture; type: cell-based; conditions: Severe fever with thrombocytopenia syndrome virus, MDCK
ZIKV NS5 (RdRp) = ZIKV NS5 (RdRp) (Zika virus, UniProt A0A024B7W1); type: biochemical
ZIKV NS5 (RdRp), sequence (A0A024B7W1 2521-3423 limits assumed): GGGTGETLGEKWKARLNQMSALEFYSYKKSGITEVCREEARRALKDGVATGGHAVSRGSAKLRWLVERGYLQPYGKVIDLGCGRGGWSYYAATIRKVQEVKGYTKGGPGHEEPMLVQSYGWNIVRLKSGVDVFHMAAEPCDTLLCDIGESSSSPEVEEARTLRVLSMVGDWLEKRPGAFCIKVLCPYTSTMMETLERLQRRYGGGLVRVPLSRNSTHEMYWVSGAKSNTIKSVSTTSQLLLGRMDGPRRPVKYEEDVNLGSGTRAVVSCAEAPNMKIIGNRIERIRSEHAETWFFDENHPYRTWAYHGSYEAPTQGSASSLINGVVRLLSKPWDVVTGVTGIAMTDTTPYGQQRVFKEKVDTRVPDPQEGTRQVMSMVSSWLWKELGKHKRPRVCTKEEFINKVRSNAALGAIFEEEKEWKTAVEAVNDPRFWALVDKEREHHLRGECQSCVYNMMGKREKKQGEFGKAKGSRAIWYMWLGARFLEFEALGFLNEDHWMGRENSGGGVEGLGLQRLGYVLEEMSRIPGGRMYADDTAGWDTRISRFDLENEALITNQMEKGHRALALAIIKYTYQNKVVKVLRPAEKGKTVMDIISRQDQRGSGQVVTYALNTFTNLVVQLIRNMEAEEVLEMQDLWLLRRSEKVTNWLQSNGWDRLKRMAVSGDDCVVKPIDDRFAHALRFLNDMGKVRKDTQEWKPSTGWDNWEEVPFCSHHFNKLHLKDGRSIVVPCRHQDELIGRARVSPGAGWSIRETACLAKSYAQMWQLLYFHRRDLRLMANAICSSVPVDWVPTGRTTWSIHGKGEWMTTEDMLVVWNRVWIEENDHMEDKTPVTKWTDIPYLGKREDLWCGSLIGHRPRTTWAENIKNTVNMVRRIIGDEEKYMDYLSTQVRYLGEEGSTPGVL

NC(=O)c1nc(F)c[nH]c1=O [Favipiravir]
Fold change (rgDENV2 NS5-G605V): 2.2

NC(=O)c1ncn([C@@H]2O[C@H](CO)[C@@H](O)[C@H]2O)n1 [Ribavirin]
Fold change (rgDENV2 NS5-G605V): 2.3

O=c1ccn([C@@H]2O[C@H](CO)[C@@H](O)[C@H]2O)c(=S)[nH]1 [s2U, 2-thiouridine]
EC50 (RVFV): > 100 µM | EC50 (YFV): 3.2 ± 1.4 µM | EC50 (SARS-CoV-2): 2.3 ± 0.43 µM | EC50 (DENV2 [1]): 1.5 ± 0.1 µM | EC50 (LPHV): > 100 µM | EC50 (CHIKV): 3.8 ± 0.12 µM | EC50 (IAV H7N9): > 100 µM | EC50 (LACV): > 100 µM | body weight change [2]: no BW loss | EC50 (JUNV): > 100 µM | mutagenicity, HPRT (in vitro gene mutation test) (V79 cells): does not have sufficient ability to introduce mutations | EC50 (MERS-CoV): 2.3 µM | EC50 (ZIKV): 3.8 ± 0.96 µM | EC50 (IAV H5N1): > 100 µM | EC50 (rgDENV2 NS5-G605V): 5.1 ± 0.69 µM | EC50 (rgDENV2 Wild type): 0.86 ± 0.12 µM | EC50 (LCMV): > 100 µM | median survival (DENV2 AG-P10): 12.5 days and > 16 days and 12 days and 13 days | EC50 (DENV2 [3]): < 0.63 µM | EC90 (DENV2 [3]): 3.4 µM | EC50 (SFTSV): > 100 µM

O=c1ccn([C@@H]2O[C@H](COP(=O)(O)OP(=O)(O)OP(=O)(O)O)[C@@H](O)[C@H]2O)c(=S)[nH]1 [s2UTP, s2U 5′-triphosphate]
RNA extension catalyzed by ZIKV RdRp (ZIKV NS5 (RdRp)): inhibited RNA extension
